We go through three compounds from patent US20250360125A1, “METHODS AND COMPOSITIONS FOR TREATING HUNTINGTON'S DISEASE AND ITS SYMPTOMS” (Corcept Therapeutics Incorporated, priority 2023, published 2025).

The subject of one experiment is mHtt aggregates. Put plainly: mHtt aggregate immunohistochemistry in striatum and hippocampal CA1 of R6/2 mice. As to conditions: experiment 2, male HD R6/2 mice, vs vehicle-treated HD mice. Type of experiment: in vivo, mouse. The protocol:
Animal studies: experimental procedures From 6 weeks of age onwards, mice received a daily subcutaneous (s.c.) injection either with 30 mg/kg of CORT113176 or vehicle (Veh; 10% ethanol and castor oil in experiment 1 or sesame oil in experiment 2) for five consecutive weeks. In experiment 1, male and female mice were assigned into one of the following groups: 1) WT+Veh (n=5 per sex), 2) WT+CORT113176 (n=5), 3) HD+Veh (n=5) or 4) HD+CORT113176 (n=5). In the final analysis there was an unequal group distribution for the male mice due to a mislabeled genotype and a mouse reaching an earlier endpoint resulting in n=6 in the WT+Veh group and n=3 in the HD+Veh group. In experiment 2, male mice were assigned into the following groups: 1) WT+Veh (n=10), 2) HD+Veh (n=10, ultimately n=8 due to a non-responder that met outlier criteria and a mouse reaching an earlier timepoint) and 3) HD+CORT113176 (n=10). Bodyweight was measured weekly and motor tests were performed at 1 PM to monitor the disease progression (as described below). On day 19 and day 34, blood samples were taken in the morning to evaluate corticosterone levels. On day 34, the animals were sacrificed using CO2 inhalation, blood was collected via cardiac puncture and the animals were perfused with cold PBS. Afterwards, several tissues were harvested and snap-frozen for further analysis. Brains were collected and stored for 24 hours at 4% PFA for IHC (further described below). Immunohistochemistry Brains were isolated and the left hemisphere was fixated in 4% PFA (Sigma-Aldrich, 8187085000) for 24 hours. Afterwards the brains were transferred to a 30% sucrose solution for 24-48 hours and stored at −80° C. until further processing. Cryosections of 10 μM were collected (CryoStar NX70) on slides (Avantor, VWR® Microscope Slides, 631-1166) and stored at −20° C. until staining. The slides were incubated for 25 minutes with 0.1% Triton X-100 (Sigma-Aldrich), washed with 0.1% PBS/Tween (Tween®20, Sigma-Aldrich). The background signal was blocked with 5% PBSA for 30 minutes before the incubation with the primary antibody DARP32, (1:500, abcam, EP720Y, ab40801), GFAP (1:500, Agilent DAKO, Z0334), Iba1, (1:500, Fujifilm Wako, 019-19741) or mHtt, 1:500 (1:500, abcam, EPR5526, ab209668) overnight at 4° C. The following day slides were washed with 0.1% PBS/Tween before incubation with the secondary antibody goat anti-rabbit Alexa Fluor 488 (1:250, Invitrogen, A-110088) for 30 minutes. After a final wash with 0.1% PBS/Tween, ProLong gold with DAPI (Invitrogen, P36931) was added with a coverslip (Thermo-Fisher, Menzel-Glaser, 0980) and the slides were dried at room temperature. The slides of DARP32, GFAP and Iba1 were scanned with the Axio Slide Scanner (Zeiss, Axio Slide Scan.Z1) and the mHtt slides were analyzed using the confocal microscope (Leica, White Light Laser Confocal Microscope TCS SP8 X). All obtained images were analyzed using ImageJ (version 1.52p). DARP32, GFAP and Iba1 the mean intensity was measured in the striatum and hippocampus. The total number of aggregates in a specific region of interest (ROI), the total area in the ROI and the average size of the aggregates were measured.

Experiment [1] concerns R6/2 mouse model. Put plainly: Hindlimb clasping test in R6/2 mice. In kind it is in vivo. As to conditions: 30 mg/kg s.c. daily for 5 weeks. How it is done:
(§1) HD and wild-type (WT) R6/2 mice were purchased from JAX (The Jackson Laboratory, ME, USA) and arrived in the animal facility at 4-weeks of age. The mice were housed under normal conditions (room temperature, 12 hours light/dark cycle) with food and water ab libitum. The mice were housed 3-4 per cage, separated by sex, but different genotypes were housed together to improve the survival of the HD mice^11. Genotyping on tail samples that were collected post-mortem was performed by Laragen (CA, USA) to confirm that all HD mice had between 120-130 CAG repeats.
Animal studies: experimental procedures From 6 weeks of age onwards, mice received a daily subcutaneous (s.c.) injection either with 30 mg/kg of CORT113176 or vehicle (Veh; 10% ethanol and castor oil in experiment 1 or sesame oil in experiment 2) for five consecutive weeks. In experiment 1, male and female mice were assigned into one of the following groups: 1) WT+Veh (n=5 per sex), 2) WT+CORT113176 (n=5), 3) HD+Veh (n=5) or 4) HD+CORT113176 (n=5). In the final analysis there was an unequal group distribution for the male mice due to a mislabeled genotype and a mouse reaching an earlier endpoint resulting in n=6 in the WT+Veh group and n=3 in the HD+Veh group. In experiment 2, male mice were assigned into the following groups: 1) WT+Veh (n=10), 2) HD+Veh (n=10, ultimately n=8 due to a non-responder that met outlier criteria and a mouse reaching an earlier timepoint) and 3) HD+CORT113176 (n=10). Bodyweight was measured weekly and motor tests were performed at 1 PM to monitor the disease progression (as described below). On day 19 and day 34, blood samples were taken in the morning to evaluate corticosterone levels. On day 34, the animals were sacrificed using CO2 inhalation, blood was collected via cardiac puncture and the animals were perfused with cold PBS. Afterwards, several tissues were harvested and snap-frozen for further analysis. Brains were collected and stored for 24 hours at 4% PFA for IHC (further described below). […]

The next experiment has as its system other steroid receptors. As to conditions: no test described; cited from earlier work.
The subject of experiment [2] is R6/2 mouse model. The experiment in a line: Observed epileptic seizures in R6/2 mice (Racine scale). In kind it is in vivo. How it is done:
as §1
Animal studies: experimental procedures From 6 weeks of age onwards, mice received a daily subcutaneous (s.c.) injection either with 30 mg/kg of CORT113176 or vehicle (Veh; 10% ethanol and castor oil in experiment 1 or sesame oil in experiment 2) for five consecutive weeks. In experiment 1, male and female mice were assigned into one of the following groups: 1) WT+Veh (n=5 per sex), 2) WT+CORT113176 (n=5), 3) HD+Veh (n=5) or 4) HD+CORT113176 (n=5). In the final analysis there was an unequal group distribution for the male mice due to a mislabeled genotype and a mouse reaching an earlier endpoint resulting in n=6 in the WT+Veh group and n=3 in the HD+Veh group. In experiment 2, male mice were assigned into the following groups: 1) WT+Veh (n=10), 2) HD+Veh (n=10, ultimately n=8 due to a non-responder that met outlier criteria and a mouse reaching an earlier timepoint) and 3) HD+CORT113176 (n=10). Bodyweight was measured weekly and motor tests were performed at 1 PM to monitor the disease progression (as described below). On day 19 and day 34, blood samples were taken in the morning to evaluate corticosterone levels. On day 34, the animals were sacrificed using CO2 inhalation, blood was collected via cardiac puncture and the animals were perfused with cold PBS. Afterwards, several tissues were harvested and snap-frozen for further analysis. Brains were collected and stored for 24 hours at 4% PFA for IHC (further described below).
These seizures were not anticipated, but every case was documented throughout the experiment and scored using the Racine scale^15.

Another experiment has as its system Iba1. Put plainly: Iba1 immunohistochemistry (microglia marker) in hippocampus of R6/2 mice. The settings on record: experiment 1, male HD R6/2 mice, 30 mg/kg s.c. daily for 5 weeks. In kind it is in vivo, mouse. How it is done: (§2) Animal studies: experimental procedures From 6 weeks of age onwards, mice received a daily subcutaneous (s.c.) injection either with 30 mg/kg of CORT113176 or vehicle (Veh; 10% ethanol and castor oil in experiment 1 or sesame oil in experiment 2) for five consecutive weeks. In experiment 1, male and female mice were assigned into one of the following groups: 1) WT+Veh (n=5 per sex), 2) WT+CORT113176 (n=5), 3) HD+Veh (n=5) or 4) HD+CORT113176 (n=5). In the final analysis there was an unequal group distribution for the male mice due to a mislabeled genotype and a mouse reaching an earlier endpoint resulting in n=6 in the WT+Veh group and n=3 in the HD+Veh group. […] Bodyweight was measured weekly and motor tests were performed at 1 PM to monitor the disease progression (as described below). […] The slides of DARP32, GFAP and Iba1 were scanned with the Axio Slide Scanner (Zeiss, Axio Slide Scan.Z1) and the mHtt slides were analyzed using the confocal microscope (Leica, White Light Laser Confocal Microscope TCS SP8 X). All obtained images were analyzed using ImageJ (version 1.52p). DARP32, GFAP and Iba1 the mean intensity was measured in the striatum and hippocampus. The total number of aggregates in a specific region of interest (ROI), the total area in the ROI and the average size of the aggregates were measured.

Experiment [3] concerns R6/2 mouse model. Put plainly: Forelimb grip strength in R6/2 mice. In kind it is in vivo. As to conditions: 30 mg/kg s.c. daily for 5 weeks. The protocol:
as §1
Animal studies: experimental procedures From 6 weeks of age onwards, mice received a daily subcutaneous (s.c.) injection either with 30 mg/kg of CORT113176 or vehicle (Veh; 10% ethanol and castor oil in experiment 1 or sesame oil in experiment 2) for five consecutive weeks. In experiment 1, male and female mice were assigned into one of the following groups: 1) WT+Veh (n=5 per sex), 2) WT+CORT113176 (n=5), 3) HD+Veh (n=5) or 4) HD+CORT113176 (n=5). […] Bodyweight was measured weekly and motor tests were performed at 1 PM to monitor the disease progression (as described below). […]
Grip strength: Grip strength measurements were performed weekly to quantify muscle strength. […] The mouse was then gently pulled away until grip was lost, and the force that was required to do this was monitored. […]

The test system of a further experiment is GFAP. The experiment in a line: GFAP immunohistochemistry (astrocyte marker) in striatum and hippocampus of R6/2 mice. In kind it is in vivo, mouse. The settings on record: experiment 1, male HD R6/2 mice, 30 mg/kg s.c. daily for 5 weeks. How it is done:
as §2

Experiment [4] has as its system R6/2 mouse model. Put plainly: Gait abnormalities in R6/2 mice. As to conditions: male R6/2 mice. Type of experiment: in vivo.
Where [5] appears, read: experiment 1, male HD R6/2 mice, vs vehicle-treated HD mice.
The mark [6] stands for this setting: experiment 2 (larger cohort), male HD R6/2 mice, vs vehicle.

Consider `O=C(c1ccccn1)[C@]12Cc3cnn(-c4ccc(F)cc4)c3C=C1CCN(S(=O)(=O)c1ccc(C(F)(F)F)cc1)C2` [CORT113176], for which, in the experiment on mHtt aggregates, the “Number of mHtt aggregates in striatum” value is recorded as “significantly decreased this number of mHtt aggregates”, the “Total mHtt aggregate area in CA1 region of hippocampus” value is “smaller total aggregate area”, the “Total number of mHtt aggregates in CA1 region of hippocampus” value is listed as “significantly fewer aggregates” and the “mHtt aggregate size in CA1 region of hippocampus” value is “smaller aggregates”. Also, in the experiment with mHtt aggregates, the “mHtt aggregate size in striatum” value was “of a similar size in vehicle- and CORT113176-treated HD groups”. The Hindlimb clasping score entry in the experiment with R6/2 mouse model [1] (experiment 1, female HD R6/2 mice) is given as “at later timepoints the treatment did attenuate the clasping score”. The Hindlimb clasping score result with R6/2 mouse model [1] (setting [5]) is “reduced clasping score”. In addition, in the experiment on R6/2 mouse model [1] (setting [6]), the Clasping score result is “reduced clasping score”. For the same compound, the “Cross-reactivity with other steroid receptors (selectivity for GR)” value (“Cross-reactivity … (selectivity for GR)” below) in the experiment with other steroid receptors was “lacks significant cross-reactivity with other steroid receptors”. For the same compound, the “Total number of epileptic seizures” value in the experiment with R6/2 mouse model [2] (experiment 1, female HD R6/2 mice, 30 mg/kg s.c. daily for 5 weeks) is given as “none were observed”. For the same compound, the “Total number of epileptic seizures” value in the experiment on R6/2 mouse model [2] (experiment 1, male HD R6/2 mice, 30 mg/kg s.c. daily for 5 weeks, vs vehicle-treated HD mice) is reported as “occurred slightly more frequently in the vehicle-treated HD mice”. In addition, in the experiment with R6/2 mouse model [2] (experiment 1, treated HD R6/2 mice, 5-week study), the “Time of occurrence of epileptic seizures” value is recorded as “occurred mostly near the end of the five weeks (day 32)”. Also, the “Number of epileptic seizures” value in the experiment with R6/2 mouse model [2] (experiment 2 (larger cohort), male HD R6/2 mice, 30 mg/kg s.c. daily for 5 weeks) was “Only one epileptic seizure was observed”. In addition, the “Iba1 intensity in hippocampus” value in the experiment on Iba1 is on record as “tended to be higher”. Further, the “Forelimb grip strength over time” value in the experiment with R6/2 mouse model [3] (setting [5]) was “attenuated this decrease of muscle function”. In addition, in the experiment with R6/2 mouse model [3] (setting [6]), the Grip strength entry is “improved grip strength”. Also, in the experiment on GFAP, the “GFAP immunoreactivity in striatum” value is given as “normalized GFAP levels in male” and the “GFAP staining intensity in hippocampus” value is reported as “tended to normalize this HD effect”. In the experiment on R6/2 mouse model [4], the Gait abnormalities entry is recorded as “significantly delayed”.

On to `CC#C[C@]1(O)CC[C@H]2[C@@H]3CCC4=CC(=O)CCC4=C3[C@@H](c3ccc(N(C)C)cc3)C[C@@]21C` [mifepristone, reference compound], for which the “Cross-reactivity … (selectivity for GR)” value in the experiment on other steroid receptors is reported as “is not specific for GR”.

As for `CC(C)n1ncc(S(=O)(=O)N2CC[C@H]3Cc4c(cnn4-c4ccc(F)cc4)C[C@]3(C(=O)c3cscn3)C2)n1` [zavacorilant, ((4aR,8aS)-1-(4-fluorophenyl)-6-((2-isopropyl-2H-1,2,3-triazol-4-yl)sulfonyl)-4,4a,5,6,7,8,8a,9-octahydro-1H-pyrazolo[3,4-g]isoquinolin-4a-yl)(thiazol-4-yl)methanone], the “Cross-reactivity … (selectivity for GR)” value in the experiment with other steroid receptors is “lacks significant cross-reactivity with other steroid receptors”.
